Source: PubChem BioAssay (NCI)
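Assay format: 96-well plates, 48-hour exposure. TGI marks complete inhibition of growth.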

Assays:
Test in all cases: NCI tumour cell line growth inhibition, 48 h
[1] = test system: SR leukemia
[2] = test system: DMS 114 small cell lung
[3] = test system: KM20L2 colon
[4] = test system: DMS 273 small cell lung
[5] = test system: HOP-18 NSCLC
[6] = test system: RXF-631 renal
[7] = test system: SNB-78 CNS
[8] = test system: MDA-N
[9] = test system: T-47D breast
[10] = test system: MDA-MB-435
[11] = test system: BT-549 breast
[12] = test system: DU-145 prostate
[13] = test system: MDA-MB-231 breast
[14] = test system: PC-3 prostate
[15] = test system: P388 leukemia
[16] = test system: SN12K1 renal
[17] = test system: P388/ADR leukemia

| SMILES | TGI [1] [µM] | TGI [2] [µM] | TGI [3] [µM] | TGI [4] [µM] | TGI [5] [µM] | TGI [8] [µM] | TGI [9] [µM] | TGI [10] [µM] | TGI [12] [µM] | TGI [13] [µM] | TGI [14] [µM] | also measured |
| --- | --- | --- | --- | --- | --- | --- | --- | --- | --- | --- | --- | --- |
| O=C(NN1C(=O)C(Cl)C1c1ccc([N+](=O)[O-])cc1)c1ccccc1O (centres undefined) | > 100 | > 100 | > 100 |  |  |  |  |  |  |  |  |  |
| Cn1nc2ccc3nccc(NCCNCCCl)c3c2n1 | > 100 | > 100 | > 100 | > 100 |  |  |  |  |  |  |  |  |
| CCOC(=O)C1CCn2c(nc3c(=O)n(C)c(=O)n(C)c32)S1 (centres undefined) | > 100 |  | > 100 | > 100 | > 100 |  |  |  |  |  |  | TGI [6]: > 100 µM; TGI [7]: > 100 µM |
| CC(=O)O[C@H]1CC[C@H]2[C@@H]3CC[C@H]4Nc5c(cnn5S(C)(=O)=O)C[C@]4(C)[C@H]3CC[C@]12C | > 100 |  |  |  |  | > 100 | > 100 | > 100 | > 100 | > 100 | > 100 | TGI [11]: 80.9 µM |
| COc1cc(C2c3cc4c(cc3[C@@H](Nc3ccc(N5CCOCC5)cc3)C3COC(=O)[C@H]23)OCO4)cc(OC)c1O (some centres undefined) |  |  | 3.91 | 1.85 | 6.67 |  |  |  |  |  |  | TGI [15]: 1.01 µM; TGI [16]: 3.6 µM; TGI [17]: 1.07 µM |
| O=C(/C=C/c1ccsc1)c1ccc(Cl)s1 | 54 |  |  |  |  | > 100 | > 100 | 79.9 | > 100 | > 100 | > 100 |  |
